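Five concentrations, 48 hours, 96-well plates. The concentration for full growth arrest is given as TGI.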
Assays:
Test in all cases: growth of human tumour cells (NCI), 48 h
SK-MEL-28 melanoma = system: SK-MEL-28 melanoma
OVCAR-5 ovarian = system: OVCAR-5 ovarian
SK-OV-3 ovarian = system: SK-OV-3 ovarian
KM12 colon = system: KM12 colon
HCT-116 colon = system: HCT-116 colon
UACC-62 melanoma = system: UACC-62 melanoma
ACHN renal = system: ACHN renal
NCI-H23 lung = system: NCI-H23 lung
CCRF-CEM leukemia = system: CCRF-CEM leukemia
HOP-92 NSCLC = system: HOP-92 NSCLC
TK-10 renal = system: TK-10 renal
SNB-19 CNS = system: SNB-19 CNS
SF-295 CNS = system: SF-295 CNS
HT29 colon = system: HT29 colon
UO-31 renal = system: UO-31 renal
HOP-62 NSCLC = system: HOP-62 NSCLC
RXF 393 renal = system: RXF 393 renal
U251 CNS = system: U251 CNS
OVCAR-8 ovarian = system: OVCAR-8 ovarian
UACC-257 melanoma = system: UACC-257 melanoma
SR leukemia = system: SR leukemia
HL-60(TB) leukemia = system: HL-60(TB) leukemia
SF-268 CNS = system: SF-268 CNS
DMS 114 small cell lung = system: DMS 114 small cell lung
A549 NSCLC = system: A549 NSCLC
MOLT-4 leukemia = system: MOLT-4 leukemia
M14 melanoma = system: M14 melanoma
DMS 273 small cell lung = system: DMS 273 small cell lung
A498 renal = system: A498 renal
SNB-78 CNS = system: SNB-78 CNS
NCI-H522 lung = system: NCI-H522 lung
EKVX NSCLC = system: EKVX NSCLC
M19-MEL melanoma = system: M19-MEL melanoma
RXF-631 renal = system: RXF-631 renal
IGROV1 ovarian = system: IGROV1 ovarian
NCI-H460 lung = system: NCI-H460 lung
DLD-1 colon = system: DLD-1 colon
K-562 leukemia = system: K-562 leukemia
OVCAR-4 ovarian = system: OVCAR-4 ovarian
HCT-15 colon = system: HCT-15 colon
SK-MEL-5 melanoma = system: SK-MEL-5 melanoma
SN12C renal = system: SN12C renal
SW-620 colon = system: SW-620 colon
LOX IMVI melanoma = system: LOX IMVI melanoma
NCI-H226 lung = system: NCI-H226 lung
COLO 205 colon = system: COLO 205 colon
SK-MEL-2 melanoma = system: SK-MEL-2 melanoma
RPMI-8226 leukemia = system: RPMI-8226 leukemia
LXFL 529 NSCLC = system: LXFL 529 NSCLC
MALME-3M melanoma = system: MALME-3M melanoma
SF-539 CNS = system: SF-539 CNS
HCC-2998 colon = system: HCC-2998 colon
OVCAR-3 ovarian = system: OVCAR-3 ovarian
786-0 renal = system: 786-0 renal

CCC1=CC2CC(C(=O)OC)C1(N(C)C)C2=O (stereo unspecified)
TGI (SK-MEL-28 melanoma): > 100 µM | TGI (OVCAR-5 ovarian): > 100 µM | TGI (SK-OV-3 ovarian): > 100 µM | TGI (KM12 colon): > 100 µM | TGI (HCT-116 colon): > 100 µM | TGI (UACC-62 melanoma): > 100 µM | TGI (ACHN renal): > 100 µM | TGI (NCI-H23 lung): > 100 µM | TGI (CCRF-CEM leukemia): > 100 µM | TGI (HOP-92 NSCLC): > 100 µM | TGI (TK-10 renal): > 100 µM | TGI (SNB-19 CNS): > 100 µM | TGI (SF-295 CNS): > 100 µM | TGI (HT29 colon): > 100 µM | TGI (UO-31 renal): > 100 µM | TGI (HOP-62 NSCLC): > 100 µM | TGI (RXF 393 renal): > 100 µM | TGI (U251 CNS): > 100 µM | TGI (OVCAR-8 ovarian): > 100 µM | TGI (UACC-257 melanoma): > 100 µM | TGI (SR leukemia): > 100 µM | TGI (HL-60(TB) leukemia): > 100 µM | TGI (SF-268 CNS): > 100 µM | TGI (DMS 114 small cell lung): > 100 µM | TGI (A549 NSCLC): > 100 µM | TGI (MOLT-4 leukemia): > 100 µM | TGI (M14 melanoma): > 100 µM | TGI (DMS 273 small cell lung): > 100 µM | TGI (A498 renal): > 100 µM | TGI (SNB-78 CNS): > 100 µM | TGI (NCI-H522 lung): > 100 µM | TGI (EKVX NSCLC): > 100 µM | TGI (M19-MEL melanoma): > 100 µM | TGI (RXF-631 renal): > 100 µM | TGI (IGROV1 ovarian): > 100 µM | TGI (NCI-H460 lung): > 100 µM

COC(=O)[C@]1(C)CCC[C@@]2(C)C1CCC1=C[C@@]3(C(C)C)CC[C@]12OO3 (stereo partly specified)
TGI (DLD-1 colon): 71.5 µM | TGI (K-562 leukemia): > 100 µM | TGI (OVCAR-4 ovarian): > 100 µM | TGI (HCT-15 colon): > 100 µM | TGI (OVCAR-5 ovarian): 84.9 µM | TGI (SK-OV-3 ovarian): > 100 µM | TGI (KM12 colon): 66.5 µM | TGI (HCT-116 colon): 73 µM | TGI (UACC-62 melanoma): 72.3 µM | TGI (ACHN renal): > 100 µM | TGI (NCI-H23 lung): > 100 µM | TGI (CCRF-CEM leukemia): 45.1 µM | TGI (SK-MEL-5 melanoma): 33.3 µM | TGI (SN12C renal): > 100 µM | TGI (TK-10 renal): > 100 µM | TGI (SNB-19 CNS): > 100 µM | TGI (SF-295 CNS): 64.4 µM | TGI (HT29 colon): 29.5 µM | TGI (UO-31 renal): 40.2 µM | TGI (SW-620 colon): > 100 µM | TGI (LOX IMVI melanoma): 60.1 µM | TGI (HOP-62 NSCLC): > 100 µM | TGI (NCI-H226 lung): 51.2 µM | TGI (U251 CNS): > 100 µM | TGI (OVCAR-8 ovarian): > 100 µM | TGI (COLO 205 colon): 45 µM | TGI (SK-MEL-2 melanoma): > 100 µM | TGI (RPMI-8226 leukemia): 47 µM | TGI (UACC-257 melanoma): > 100 µM | TGI (SR leukemia): 40.7 µM | TGI (HL-60(TB) leukemia): 42 µM | TGI (SF-268 CNS): 66.6 µM | TGI (LXFL 529 NSCLC): 74.1 µM | TGI (A549 NSCLC): > 100 µM | TGI (MOLT-4 leukemia): 83.1 µM | TGI (MALME-3M melanoma): > 100 µM | TGI (M14 melanoma): 68.3 µM | TGI (DMS 273 small cell lung): 87.2 µM | TGI (A498 renal): 67 µM | TGI (SNB-78 CNS): > 100 µM | TGI (SF-539 CNS): 47.5 µM | TGI (HCC-2998 colon): > 100 µM | TGI (NCI-H522 lung): 35.4 µM | TGI (EKVX NSCLC): > 100 µM | TGI (OVCAR-3 ovarian): > 100 µM | TGI (M19-MEL melanoma): 65.7 µM | TGI (RXF-631 renal): 63.8 µM | TGI (IGROV1 ovarian): > 100 µM | TGI (NCI-H460 lung): 56.5 µM | TGI (786-0 renal): 40.9 µM

— PubChem BioAssay (NCI)
